Assay results from patent US20210330566A1, “WATER-SOLUBILIZED MIXTURE OF GINSENOSIDE COMPOUND K AND METHOD OF WATERSOLUBILIZING GINSENOSIDE COMPOUND K” (VENN SKINCARE, INC., priority 2018, published 2021).

Assay: Solubility test of ginsenoside compound K depending on type of solvent
Format: physicochemical
Conditions: 95% of solvent and 5% of ginsenoside compound K
Procedure: The solubility of ginsenoside compound K was tested to be checked for representative polar and nonpolar solvents mainly used in cosmetics.

CC(C)=CCC[C@](C)(O[C@@H]1O[C@H](CO)[C@@H](O)[C@H](O)[C@H]1O)[C@H]1CC[C@]2(C)[C@@H]1[C@H](O)C[C@@H]1[C@@]3(C)CC[C@H](O)C(C)(C)[C@@H]3CC[C@]12C [ginsenoside compound K, 20-O-β-D-glucopyranosyl-20(S)-protopanaxadiol]
Solubility (60° C.) (solvent Ethanol): Soluble | Solubility (room temperature) (solvent Ethanol): Soluble | Solubility (60° C.) (solvent Glycerin): Insoluble | Solubility (room temperature) (solvent Glycerin): Insoluble | Solubility (60° C.) (solvent Mineral Oil): Insoluble | Solubility (room temperature) (solvent Mineral Oil): Insoluble | Solubility (60° C.) (solvent Non-Polar Ester Oil): Insoluble | Solubility (room temperature) (solvent Non-Polar Ester Oil): Insoluble | Solubility (60° C.) (solvent Polar Ester Oil): Insoluble | Solubility (room temperature) (solvent Polar Ester Oil): Insoluble | Solubility (60° C.) (solvent Silicone): Insoluble | Solubility (room temperature) (solvent Silicone): Insoluble | Solubility (60° C.) (solvent Surfactant): Insoluble | Solubility (room temperature) (solvent Surfactant): Insoluble | Solubility (60° C.) (solvent Vegetable Oil): Insoluble | Solubility (room temperature) (solvent Vegetable Oil): Insoluble | Solubility (60° C.) (solvent Water): Insoluble | Solubility (room temperature) (solvent Water): Insoluble
